Converted amounts (≈) assume the structure as drawn.
Key:
Klebsiella aerogenes [1] = experiment: Antimicrobial activity against multidrug resistant Enterobacter aerogenes isolate 18 by broth dilution method; type: functional
Escherichia coli [2] = experiment: microbe, parasite or virus in culture; conditions: DH5[alpha]
Description: Antimicrobial activity against multidrug resistant Escherichia coli DH5[alpha] by broth dilution method

Klebsiella aerogenes [3] = experiment: Antimicrobial activity against multidrug resistant Enterobacter aerogenes ATCC 15038 by broth dilution method; type: functional
Klebsiella aerogenes [4] = experiment: Antimicrobial activity against multidrug resistant Enterobacter aerogenes isolate 8 by broth dilution method; type: functional
Klebsiella aerogenes [5] = experiment: Antimicrobial activity against multidrug resistant Enterobacter aerogenes isolate 19 by broth dilution method; type: functional
Klebsiella aerogenes [6] = experiment: Antimicrobial activity against multidrug resistant Enterobacter aerogenes isolate 15 by broth dilution method; type: functional
Escherichia coli [7] = experiment: microbe, parasite or virus in culture; conditions: DH5[alpha]; remark: listed apart in the source
Description: Antimicrobial activity against multidrug resistant Escherichia coli DH5[alpha] harboring pACM204 plasmid by broth dilution method

Klebsiella aerogenes [8] = experiment: Antimicrobial activity against multidrug resistant Enterobacter aerogenes isolate 3 by broth dilution method; type: functional
Klebsiella pneumoniae [9] = experiment: Antimicrobial activity against multidrug resistant Klebsiella pneumoniae isolate 16 by broth dilution method; type: functional
Klebsiella aerogenes [10] = experiment: Antimicrobial activity against multidrug resistant Enterobacter aerogenes isolate 5 by broth dilution method; type: functional
Klebsiella pneumoniae [11] = experiment: Antimicrobial activity against multidrug resistant Klebsiella pneumoniae isolate 12 by broth dilution method; type: functional
Klebsiella aerogenes [12] = experiment: Antimicrobial activity against multidrug resistant Enterobacter aerogenes isolate 2 by broth dilution method; type: functional
Klebsiella aerogenes [13] = experiment: Antimicrobial activity against multidrug resistant Enterobacter aerogenes isolate 1 by broth dilution method; type: functional
Klebsiella pneumoniae [14] = experiment: Antimicrobial activity against multidrug resistant Klebsiella pneumoniae isolate 10 by broth dilution method; type: functional
Klebsiella aerogenes [15] = experiment: Antimicrobial activity against multidrug resistant Enterobacter aerogenes isolate 23 by broth dilution method; type: functional
Escherichia coli [16] = experiment: microbe, parasite or virus in culture; conditions: ATCC 35218
Description: Antimicrobial activity against multidrug resistant Escherichia coli ATCC 35218 harboring pDrive plasmid by broth dilution method

Klebsiella aerogenes [17] = experiment: Antimicrobial activity against multidrug resistant Enterobacter aerogenes isolate 6 by broth dilution method; type: functional
Klebsiella aerogenes [18] = experiment: Antimicrobial activity against multidrug resistant Enterobacter aerogenes isolate 20 by broth dilution method; type: functional
Klebsiella pneumoniae [19] = experiment: Antimicrobial activity against multidrug resistant Klebsiella pneumoniae isolate 3 by broth dilution method; type: functional
Klebsiella aerogenes [20] = experiment: Antimicrobial activity against multidrug resistant Enterobacter aerogenes isolate 24 by broth dilution method; type: functional
Klebsiella pneumoniae [21] = experiment: Antimicrobial activity against multidrug resistant Klebsiella pneumoniae isolate 8 by broth dilution method; type: functional
Klebsiella pneumoniae [22] = experiment: Antimicrobial activity against multidrug resistant Klebsiella pneumoniae isolate 1 by broth dilution method; type: functional
Klebsiella pneumoniae [23] = experiment: Antimicrobial activity against multidrug resistant Klebsiella pneumoniae isolate 6 by broth dilution method; type: functional
Klebsiella aerogenes [24] = experiment: Antimicrobial activity against multidrug resistant Enterobacter aerogenes isolate 10 by broth dilution method; type: functional
Klebsiella pneumoniae [25] = experiment: Antimicrobial activity against multidrug resistant Klebsiella pneumoniae isolate 15 by broth dilution method; type: functional
Klebsiella aerogenes [26] = experiment: Antimicrobial activity against multidrug resistant Enterobacter aerogenes isolate 26 by broth dilution method; type: functional
Escherichia coli [27] = experiment: microbe, parasite or virus in culture; conditions: DH5[alpha]; remark: listed apart in the source
Description: Antimicrobial activity against multidrug resistant Escherichia coli DH5[alpha] harboring pDrive plasmid by broth dilution method

Klebsiella pneumoniae [28] = experiment: Antimicrobial activity against multidrug resistant Klebsiella pneumoniae isolate 2 by broth dilution method; type: functional
Klebsiella aerogenes [29] = experiment: Antimicrobial activity against multidrug resistant Enterobacter aerogenes isolate 4 by broth dilution method; type: functional
Klebsiella aerogenes [30] = experiment: Antimicrobial activity against multidrug resistant Enterobacter aerogenes isolate 22 by broth dilution method; type: functional
Escherichia coli [31] = experiment: microbe, parasite or virus in culture; conditions: DH5[alpha]; remark: listed apart in the source
Description: Antimicrobial activity against multidrug resistant Escherichia coli DH5[alpha] harboring pDrive plasmid expressing ampC gene by broth dilution method

Klebsiella aerogenes [32] = experiment: Antimicrobial activity against multidrug resistant Enterobacter aerogenes isolate 27 by broth dilution method; type: functional
Klebsiella aerogenes [33] = experiment: Antimicrobial activity against multidrug resistant Enterobacter aerogenes isolate 11 by broth dilution method; type: functional
Klebsiella aerogenes [34] = experiment: Antimicrobial activity against multidrug resistant Enterobacter aerogenes isolate 14 by broth dilution method; type: functional
Klebsiella aerogenes [35] = experiment: Antimicrobial activity against multidrug resistant Enterobacter aerogenes isolate 25 by broth dilution method; type: functional
Klebsiella aerogenes [36] = experiment: Antimicrobial activity against multidrug resistant Enterobacter aerogenes ATCC 15038 harboring pDrive plasmid expressing ampC gene by broth dilution method; type: functional
Klebsiella pneumoniae [37] = experiment: Antimicrobial activity against multidrug resistant Klebsiella pneumoniae isolate 4 by broth dilution method; type: functional
Klebsiella pneumoniae [38] = experiment: Antimicrobial activity against multidrug resistant Klebsiella pneumoniae isolate 14 by broth dilution method; type: functional
Klebsiella aerogenes [39] = experiment: Antimicrobial activity against multidrug resistant Enterobacter aerogenes isolate 13 by broth dilution method; type: functional
Klebsiella aerogenes [40] = experiment: Antimicrobial activity against multidrug resistant Enterobacter aerogenes ATCC 15038 harboring pDrive plasmid by broth dilution method; type: functional
Klebsiella aerogenes [41] = experiment: Antimicrobial activity against multidrug resistant Enterobacter aerogenes isolate 9 by broth dilution method; type: functional
Klebsiella aerogenes [42] = experiment: Antimicrobial activity against multidrug resistant Enterobacter aerogenes isolate 21 by broth dilution method; type: functional
Escherichia coli [43] = experiment: Antimicrobial activity against multidrug resistant Escherichia coli ATCC 35218 by broth dilution method; type: functional
Klebsiella pneumoniae [44] = experiment: Antimicrobial activity against multidrug resistant Klebsiella pneumoniae isolate 5 by broth dilution method; type: functional
Klebsiella pneumoniae [45] = experiment: Antimicrobial activity against multidrug resistant Klebsiella pneumoniae isolate 11 by broth dilution method; type: functional
Klebsiella aerogenes [46] = experiment: Antimicrobial activity against multidrug resistant Enterobacter aerogenes isolate 16 by broth dilution method; type: functional
Klebsiella aerogenes [47] = experiment: Antimicrobial activity against multidrug resistant Enterobacter aerogenes ATCC 15038 harboring pACM204 plasmid by broth dilution method; type: functional
Klebsiella aerogenes [48] = experiment: Antimicrobial activity against multidrug resistant Enterobacter aerogenes isolate 17 by broth dilution method; type: functional
Klebsiella pneumoniae [49] = experiment: Antimicrobial activity against multidrug resistant Klebsiella pneumoniae isolate 9 by broth dilution method; type: functional
Escherichia coli [50] = experiment: microbe, parasite or virus in culture; conditions: ATCC 35218; remark: listed apart in the source
Description: Antimicrobial activity against multidrug resistant Escherichia coli ATCC 35218 harboring pDrive plasmid expressing ampC gene by broth dilution method

Klebsiella pneumoniae [51] = experiment: Antimicrobial activity against multidrug resistant Klebsiella pneumoniae ATCC 11296 by broth dilution method; type: functional
Klebsiella aerogenes [52] = experiment: Antimicrobial activity against multidrug resistant Enterobacter aerogenes isolate 12 by broth dilution method; type: functional
Klebsiella aerogenes [53] = experiment: Antimicrobial activity against multidrug resistant Enterobacter aerogenes isolate 7 by broth dilution method; type: functional
Klebsiella pneumoniae [54] = experiment: Antimicrobial activity against multidrug resistant Klebsiella pneumoniae isolate 13 by broth dilution method; type: functional
Klebsiella pneumoniae [55] = experiment: Antimicrobial activity against multidrug resistant Klebsiella pneumoniae isolate 7 by broth dilution method; type: functional

C[C@@H](O)[C@H]1C(=O)N2C(C(=O)O)=C(SCCNC=N)C[C@H]12 [IMIPENEM ANHYDROUS]
MIC (Klebsiella aerogenes [1]): 1 µg/mL (≈ 3.34 µM)
MIC (Escherichia coli [2]): 0.25 µg/mL (≈ 0.835 µM)
MIC (Klebsiella aerogenes [3]): 0.25 µg/mL (≈ 0.835 µM)
MIC (Klebsiella aerogenes [4]): 1 µg/mL (≈ 3.34 µM)
MIC (Klebsiella aerogenes [5]): 2 µg/mL (≈ 6.68 µM)
MIC (Klebsiella aerogenes [6]): 0.5 µg/mL (≈ 1.67 µM)
MIC (Escherichia coli [7]): 0.5 µg/mL (≈ 1.67 µM)
MIC (Klebsiella aerogenes [8]): 1 µg/mL (≈ 3.34 µM)
MIC (Klebsiella pneumoniae [9]): 0.5 µg/mL (≈ 1.67 µM)
MIC (Klebsiella aerogenes [10]): 2 µg/mL (≈ 6.68 µM)
MIC (Klebsiella pneumoniae [11]): 1 µg/mL (≈ 3.34 µM)
MIC (Klebsiella aerogenes [12]): 1 µg/mL (≈ 3.34 µM)
MIC (Klebsiella aerogenes [13]): 1 µg/mL (≈ 3.34 µM)
MIC (Klebsiella pneumoniae [14]): 0.5 µg/mL (≈ 1.67 µM)
MIC (Klebsiella aerogenes [15]): 1 µg/mL (≈ 3.34 µM)
MIC (Escherichia coli [16]): 0.25 µg/mL (≈ 0.835 µM)
MIC (Klebsiella aerogenes [17]): 1 µg/mL (≈ 3.34 µM)
MIC (Klebsiella aerogenes [18]): 1 µg/mL (≈ 3.34 µM)
MIC (Klebsiella pneumoniae [19]): 2 µg/mL (≈ 6.68 µM)
MIC (Klebsiella aerogenes [20]): 1 µg/mL (≈ 3.34 µM)
MIC (Klebsiella pneumoniae [21]): 0.5 µg/mL (≈ 1.67 µM)
MIC (Klebsiella pneumoniae [22]): 0.25 µg/mL (≈ 0.835 µM)
MIC (Klebsiella pneumoniae [23]): 0.5 µg/mL (≈ 1.67 µM)
MIC (Klebsiella aerogenes [24]): 1 µg/mL (≈ 3.34 µM)
MIC (Klebsiella pneumoniae [25]): 1 µg/mL (≈ 3.34 µM)
MIC (Klebsiella aerogenes [26]): 1 µg/mL (≈ 3.34 µM)
MIC (Escherichia coli [27]): 0.25 µg/mL (≈ 0.835 µM)
MIC (Klebsiella pneumoniae [28]): 0.25 µg/mL (≈ 0.835 µM)
MIC (Klebsiella aerogenes [29]): 1 µg/mL (≈ 3.34 µM)
MIC (Klebsiella aerogenes [30]): 1 µg/mL (≈ 3.34 µM)
MIC (Escherichia coli [31]): 2 µg/mL (≈ 6.68 µM)
MIC (Klebsiella aerogenes [32]): 1 µg/mL (≈ 3.34 µM)
MIC (Klebsiella aerogenes [33]): 1 µg/mL (≈ 3.34 µM)
MIC (Klebsiella aerogenes [34]): 2 µg/mL (≈ 6.68 µM)
MIC (Klebsiella aerogenes [35]): 1 µg/mL (≈ 3.34 µM)
MIC (Klebsiella aerogenes [36]): 2 µg/mL (≈ 6.68 µM)
MIC (Klebsiella pneumoniae [37]): 1 µg/mL (≈ 3.34 µM)
MIC (Klebsiella pneumoniae [38]): 0.5 µg/mL (≈ 1.67 µM)
MIC (Klebsiella aerogenes [39]): 2 µg/mL (≈ 6.68 µM)
MIC (Klebsiella aerogenes [40]): 0.5 µg/mL (≈ 1.67 µM)
MIC (Klebsiella aerogenes [41]): 1 µg/mL (≈ 3.34 µM)
MIC (Klebsiella aerogenes [42]): 2 µg/mL (≈ 6.68 µM)
MIC (Escherichia coli [43]): 0.125 µg/mL (≈ 0.418 µM)
MIC (Klebsiella pneumoniae [44]): 0.5 µg/mL (≈ 1.67 µM)
MIC (Klebsiella pneumoniae [45]): 0.5 µg/mL (≈ 1.67 µM)
MIC (Klebsiella aerogenes [46]): 1 µg/mL (≈ 3.34 µM)
MIC (Klebsiella aerogenes [47]): 0.5 µg/mL (≈ 1.67 µM)
MIC (Klebsiella aerogenes [48]): 1 µg/mL (≈ 3.34 µM)
MIC (Klebsiella pneumoniae [49]): 0.5 µg/mL (≈ 1.67 µM)
MIC (Escherichia coli [50]): 0.5 µg/mL (≈ 1.67 µM)
MIC (Klebsiella pneumoniae [51]): 0.5 µg/mL (≈ 1.67 µM)
MIC (Klebsiella aerogenes [52]): 1 µg/mL (≈ 3.34 µM)
MIC (Klebsiella aerogenes [53]): 2 µg/mL (≈ 6.68 µM)
MIC (Klebsiella pneumoniae [54]): 1 µg/mL (≈ 3.34 µM)
MIC (Klebsiella pneumoniae [55]): 0.5 µg/mL (≈ 1.67 µM)

Reference: ChEMBL document CHEMBL1649134, “Occurrence of efflux mechanism and cephalosporinase variant in a population of Enterobacter aerogenes and Klebsiella pneumoniae isolates producing extended-spectrum beta-lactamases” (2009)
